Experimental data: patent US8697858B2 (priority 2009, dated 2014)
Several values for one entry are separate records, joined by “and”; a condition that tells them apart may be missing. Identical values can stand only once. Like-named read-outs stand apart in the source and are kept apart here. In the oligonucleotide strings, read from the 5' end, every base follows the letter of its sugar. An asterisk marks phosphorothioate; unmarked linkages are phosphodiester. Other units and linkages are bracketed, terminal groups are in braces. A string of capitals states the bases alone. [PMO-N] = phosphorodiamidate morpholino subunit (N: the base); [pip] = piperazino phosphorodiamidate linkage (PMOplus)

Columns and labels:
Format in all cases: in vivo, ferrets
[1] = tested on: oseltamivir-resistant H1N1 (SOIV) pandemic influenza virus
[2] = tested on: oseltamivir-resistant H1N1 (SOIV) pandemic influenza virus; remark: listed apart in the source
[3] = tested on: oseltamivir-resistant H1N1 (SOIV) pandemic influenza virus; settings: for Viral Titer AUC / Viral Titer: n = 8
[4] = tested on: oseltamivir-resistant H1N1 (SOIV) pandemic influenza virus; remark: listed apart in the source
[5] = Post minus Pre, Tamiflu 5 mg/kg p.o. every 12 hours
[6] = Post, Tamiflu 5 mg/kg p.o. every 12 hours
[7] = Pre, Tamiflu 5 mg/kg p.o. every 12 hours

AVI-7100: PMOplus CGGT+TAGAAGAC+TCATC+TTT, three (piperazino) phosphorodiamidate linkages ([PMO-C][PMO-G][PMO-G][PMO-T][pip][PMO-T][PMO-A][PMO-G][PMO-A][PMO-A][PMO-G][PMO-A][PMO-C][pip][PMO-T][PMO-C][PMO-A][PMO-T][PMO-C][pip][PMO-T][PMO-T][PMO-T])
lung congestion, alveolitis, infiltrating cells ([1]; in vivo): no congestion in the lung, only mild alveolitis, and few infiltrating cells | Macrophage Cellularity in Upper Respiratory Tract, Average ± Std Deviation ([2]; in vivo, ip, 10 mg/kg): 4.34 ± 3.82 | Macrophage Cellularity in Upper Respiratory Tract, Day 3 Peak ([2]; in vivo, ip, 10 mg/kg): 3.88 ± 4.73 | Macrophage Cellularity in Upper Respiratory Tract, Average ± Std Deviation ([2]; in vivo, ip, 30 mg/kg): 2.78 ± 2.97 | Macrophage Cellularity in Upper Respiratory Tract, Day 3 Peak ([2]; in vivo, ip, 30 mg/kg): 1.59 ± 1.28 | viral titer in nasal wash, benefit in words ([3]; in vivo): Significant benefit | Viral Titer AUC ([3]; 10 mg/kg): 5.515 | Viral Titer AUC ([3]; 30 mg/kg): 5.675 | Clinical Scores ([4]; in vivo): 1.00 ± 0.00 and 1.11 ± 0.21 | symptoms of influenza virus infection ([4]; in vivo): significantly reduces symptoms of influenza virus infection | Body Weight Change Difference ([4]; in vivo, ip, 10 mg/kg): -5.7 g/day | Body Weight Change Post ([4]; in vivo, ip, 10 mg/kg): 10.9 ± 1.5 g/day | Body Weight Change Pre ([4]; in vivo, ip, 10 mg/kg): 16.6 ± 0.8 g/day | Max Body Temperatures Difference ([4]; in vivo, ip, 10 mg/kg): +0.7 ° F. | Max Body Temperatures Post ([4]; in vivo, ip, 10 mg/kg): 106.1 ° F. | Max Body Temperatures Pre ([4]; in vivo, ip, 10 mg/kg): 105.4 ° F. | Body Weight Change Difference ([4]; in vivo, ip, 30 mg/kg): +0.8 g/day | Body Weight Change Post ([4]; in vivo, ip, 30 mg/kg): 12.6 ± 2.0 g/day | Body Weight Change Pre ([4]; in vivo, ip, 30 mg/kg): 11.8 ± 0.8 g/day | Max Body Temperatures Difference ([4]; in vivo, ip, 30 mg/kg): −0.5 ° F. | Max Body Temperatures Post ([4]; in vivo, ip, 30 mg/kg): 104.2 ° F. | Max Body Temperatures Pre ([4]; in vivo, ip, 30 mg/kg): 104.7 ° F.

CCOC(=O)C1=C[C@@H](OC(CC)CC)[C@H](NC(C)=O)[C@@H](N)C1 [Tamiflu, Oseltamivir, reference compound]
lung congestion, alveolitis, infiltrating cells ([1]; AVI-7100 with or without oseltamivir, oseltamivir-only): significant congestion in the lung with marked alveolitis | Macrophage Cellularity in Upper Respiratory Tract, Day 3 Peak ([2]; nasal wash, Day 3, Tamiflu 5 mg/kg p.o. every 12 hours): 7.91 ± 7.28 | Macrophage Cellularity in Upper Respiratory Tract, Average ± Std Deviation ([2]; nasal wash, Tamiflu 5 mg/kg p.o. every 12 hours): 2.98 ± 2.71 | Viral Titer ([3]; nasal wash, Day 1, Oseltamivir 5 mg/kg p.o. every 12 hours): 2.42 ± 0.58 | Viral Titer ([3]; nasal wash, Day 3, Oseltamivir 5 mg/kg p.o. every 12 hours): 0.77 ± 0.73 | Viral Titer ([3]; nasal wash, Day 5, Oseltamivir 5 mg/kg p.o. every 12 hours): 0.67 ± 0.67 | Viral Titer ([3]; nasal wash, Day 8, Oseltamivir 5 mg/kg p.o. every 12 hours): 0.92 ± 0.37 | Viral Titer AUC ([3]; nasal wash, Oseltamivir 5 mg/kg p.o. every 12 hours): 7.015 | Body Weight Change Difference [4, 5]: -6.1 g/day | Max Body Temperatures Difference [4, 5]: +1.3 ° F. | Body Weight Change Post [4, 6]: 8.5 ± 3.2 g/day | Max Body Temperatures Post [4, 6]: 105.7 ° F. | Body Weight Change Pre [4, 7]: 15.1 ± 0.4 g/day | Max Body Temperatures Pre [4, 7]: 104.4 ° F. | Clinical Scores ([4]; Tamiflu 5 mg/kg p.o. every 12 hours): 1.17 ± 0.25
